Laboratory results published in PubChem BioAssay AID651573 (The Scripps Research Institute Molecular Screening Center, 2012).
Calls of active or inactive are those of the source.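 Rule for the calls: active = percent growth at or below 50%, meaning growth inhibited by at least half; inactive = percent growth above 50%.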

Experiments:
Experiment in all cases: cancer cell panel antiproliferative activity – NCI60 one-dose, 10 µM, STAT3 inhibitor project, profiling panel (AID 651573)
Melanoma UACC-62 = conditions: SRB absorbance, 48 h, at 10 µM, active compounds read low, 0 = no net growth, negative = cell kill
Prostate Cancer DU-145 = conditions: SRB absorbance, 48 h, at 10 µM, active compounds read low
Leukemia SR = conditions: SRB absorbance, 48 h, at 10 µM, active compounds read low
Breast Cancer MDA-MB-468 = conditions: SRB absorbance, 48 h, at 10 µM, active compounds read low
Renal Cancer CAKI-1 = conditions: SRB absorbance, 48 h, at 10 µM, active compounds read low
Melanoma MDA-MB-435 = conditions: SRB absorbance, 48 h, at 10 µM, active compounds read low
CNS Cancer SNB-19 = conditions: SRB absorbance, 48 h, at 10 µM, active compounds read low
Melanoma LOX IMVI = conditions: SRB absorbance, 48 h, at 10 µM, active compounds read low
Leukemia CCRF-CEM = conditions: SRB absorbance, 48 h, at 10 µM, active compounds read low
Ovarian Cancer OVCAR-3 = conditions: SRB absorbance, 48 h, at 10 µM, active compounds read low
Melanoma MALME-3M = conditions: SRB absorbance, 48 h, at 10 µM, active compounds read low
Renal Cancer SN12C = conditions: SRB absorbance, 48 h, at 10 µM, active compounds read low
[1] = system: Non-Small Cell Lung Cancer A549/ATCC; conditions: SRB absorbance, 48 h, at 10 µM, active compounds read low
Colon Cancer COLO 205 = conditions: SRB absorbance, 48 h, at 10 µM, active compounds read low, 0 = no net growth, negative = cell kill
Melanoma UACC-257 = conditions: SRB absorbance, 48 h, at 10 µM, active compounds read low
Prostate Cancer PC-3 = conditions: SRB absorbance, 48 h, at 10 µM, active compounds read low
Ovarian Cancer SK-OV-3 = conditions: SRB absorbance, 48 h, at 10 µM, active compounds read low
Melanoma M14 = conditions: SRB absorbance, 48 h, at 10 µM, active compounds read low
Breast Cancer HS 578T = conditions: SRB absorbance, 48 h, at 10 µM, active compounds read low
Renal Cancer TK-10 = conditions: SRB absorbance, 48 h, at 10 µM, active compounds read low
Melanoma SK-MEL-5 = conditions: SRB absorbance, 48 h, at 10 µM, active compounds read low
[2] = system: Breast Cancer MDA-MB-231/ATCC; conditions: SRB absorbance, 48 h, at 10 µM, active compounds read low
Colon Cancer SW-620 = conditions: SRB absorbance, 48 h, at 10 µM, active compounds read low, 0 = no net growth, negative = cell kill
[3] = system: Non-Small Cell Lung Cancer NCI-H322M; conditions: SRB absorbance, 48 h, at 10 µM, active compounds read low
Breast Cancer BT-549 = conditions: SRB absorbance, 48 h, at 10 µM, active compounds read low, 0 = no net growth, negative = cell kill
Renal Cancer 786-0 = conditions: SRB absorbance, 48 h, at 10 µM, active compounds read low
Melanoma SK-MEL-2 = conditions: SRB absorbance, 48 h, at 10 µM, active compounds read low
Colon Cancer HCT-15 = conditions: SRB absorbance, 48 h, at 10 µM, active compounds read low
CNS Cancer U251 = conditions: SRB absorbance, 48 h, at 10 µM, active compounds read low
Colon Cancer KM12 = conditions: SRB absorbance, 48 h, at 10 µM, active compounds read low
[4] = system: Non-Small Cell Lung Cancer NCI-H226; conditions: SRB absorbance, 48 h, at 10 µM, active compounds read low
CNS Cancer SNB-75 = conditions: SRB absorbance, 48 h, at 10 µM, active compounds read low
Ovarian Cancer OVCAR-8 = conditions: SRB absorbance, 48 h, at 10 µM, active compounds read low
[5] = system: Non-Small Cell Lung Cancer NCI-H23; conditions: SRB absorbance, 48 h, at 10 µM, active compounds read low
[6] = system: Non-Small Cell Lung Cancer EKVX; conditions: SRB absorbance, 48 h, at 10 µM, active compounds read low
Renal Cancer A498 = conditions: SRB absorbance, 48 h, at 10 µM, active compounds read low
[7] = system: Non-Small Cell Lung Cancer HOP-62; conditions: SRB absorbance, 48 h, at 10 µM, active compounds read low, 0 = no net growth, negative = cell kill
[8] = system: Non-Small Cell Lung Cancer NCI-H522; conditions: SRB absorbance, 48 h, at 10 µM, active compounds read low
Ovarian Cancer OVCAR-4 = conditions: SRB absorbance, 48 h, at 10 µM, active compounds read low
Colon Cancer HCC-2998 = conditions: SRB absorbance, 48 h, at 10 µM, active compounds read low
Melanoma SK-MEL-28 = conditions: SRB absorbance, 48 h, at 10 µM, active compounds read low
Leukemia RPMI-8226 = conditions: SRB absorbance, 48 h, at 10 µM, active compounds read low
Breast Cancer MCF7 = conditions: SRB absorbance, 48 h, at 10 µM, active compounds read low
CNS Cancer SF-268 = conditions: SRB absorbance, 48 h, at 10 µM, active compounds read low
Leukemia K-562 = conditions: SRB absorbance, 48 h, at 10 µM, active compounds read low
[9] = system: Non-Small Cell Lung Cancer HOP-92; conditions: SRB absorbance, 48 h, at 10 µM, active compounds read low, 0 = no net growth, negative = cell kill
Leukemia MOLT-4 = conditions: SRB absorbance, 48 h, at 10 µM, active compounds read low
[10] = system: Ovarian Cancer NCI/ADR-RES; conditions: SRB absorbance, 48 h, at 10 µM, active compounds read low
[11] = system: Non-Small Cell Lung Cancer NCI-H460; conditions: SRB absorbance, 48 h, at 10 µM, active compounds read low
Renal Cancer RXF 393 = conditions: SRB absorbance, 48 h, at 10 µM, active compounds read low
CNS Cancer SF-295 = conditions: SRB absorbance, 48 h, at 10 µM, active compounds read low
Colon Cancer HCT-116 = conditions: SRB absorbance, 48 h, at 10 µM, active compounds read low

Measured: percent growth

COc1ccc(CC2CCN(c3ncnc4sccc34)CC2)cc1
inactive: Melanoma UACC-62 54.8% | Prostate Cancer DU-145 99.4% | Leukemia SR 72.5% | Renal Cancer CAKI-1 66.3% | Melanoma MDA-MB-435 66.9% | CNS Cancer SNB-19 69.3% | Leukemia CCRF-CEM 51% | Ovarian Cancer OVCAR-3 94.1% | Melanoma MALME-3M 127% | Renal Cancer SN12C 72.9% | [1] 64.2% | Colon Cancer COLO 205 95% | Melanoma UACC-257 67.2% | Prostate Cancer PC-3 81.5% | Ovarian Cancer SK-OV-3 87.5% | Melanoma M14 87.5% | Breast Cancer HS 578T 90.1% | Renal Cancer TK-10 80.4% | [2] 79.8% | Colon Cancer SW-620 86.9% | [3] 66.6% | Breast Cancer BT-549 56% | Renal Cancer 786-0 65.6% | Melanoma SK-MEL-2 71.3% | Colon Cancer HCT-15 73.7% | CNS Cancer U251 73.2% | Colon Cancer KM12 91.7% | [4] 82% | CNS Cancer SNB-75 100% | Ovarian Cancer OVCAR-8 65.4% | Renal Cancer A498 96.1% | [7] 93.6% | Ovarian Cancer OVCAR-4 50.7% | Colon Cancer HCC-2998 88.5% | Melanoma SK-MEL-28 108% | Breast Cancer MCF7 55.5% | CNS Cancer SF-268 93.2% | [9] 75.4% | Leukemia MOLT-4 66% | [11] 62.4% | Renal Cancer RXF 393 108% | CNS Cancer SF-295 59%
active: Breast Cancer MDA-MB-468 21.3% | Melanoma LOX IMVI 34.4% | Melanoma SK-MEL-5 31.8% | [5] 46.8% | [6] 39.9% | [8] 48.5% | Leukemia RPMI-8226 25.4% | Leukemia K-562 41.1% | [10] 43.4% | Colon Cancer HCT-116 34.9%

COc1ccc(C(=O)C2CCN(c3ncnc4sccc34)CC2)cc1
active: Leukemia SR 47.9% | Breast Cancer MDA-MB-468 18.9% | Melanoma LOX IMVI 40.1% | Leukemia CCRF-CEM 42.3% | Melanoma SK-MEL-5 26.5% | [6] 34.9% | [8] 49.2% | Leukemia RPMI-8226 27.7% | Leukemia K-562 41.4% | [10] 43.5% | Colon Cancer HCT-116 34.4%
inactive: Melanoma UACC-62 52.7% | Prostate Cancer DU-145 98.8% | Renal Cancer CAKI-1 66.4% | Melanoma MDA-MB-435 66.6% | CNS Cancer SNB-19 64.8% | Ovarian Cancer OVCAR-3 97.1% | Renal Cancer SN12C 71.2% | [1] 74.5% | Colon Cancer COLO 205 88.2% | Melanoma UACC-257 63.7% | Prostate Cancer PC-3 76.9% | Ovarian Cancer SK-OV-3 89.9% | Melanoma M14 78.5% | Breast Cancer HS 578T 93.6% | Renal Cancer TK-10 73.3% | [2] 77.8% | Colon Cancer SW-620 90.8% | Breast Cancer BT-549 53.4% | Renal Cancer 786-0 72.4% | Melanoma SK-MEL-2 76% | Colon Cancer HCT-15 72.4% | CNS Cancer U251 77.5% | Colon Cancer KM12 87.9% | [4] 88.8% | CNS Cancer SNB-75 104% | Ovarian Cancer OVCAR-8 64% | [5] 53.4% | Renal Cancer A498 91.7% | [7] 91.9% | Colon Cancer HCC-2998 82.3% | Melanoma SK-MEL-28 105% | Breast Cancer MCF7 55.4% | CNS Cancer SF-268 85.4% | [9] 61.7% | Leukemia MOLT-4 57.7% | [11] 71% | Renal Cancer RXF 393 102% | CNS Cancer SF-295 57.1%
